In PMC4948680 (European journal of pharmaceutical sciences : official …, 2016):

How the values were obtained:
[1] = in vivo; design: species or system Swiss albino mice; settings: mouse; for tissue uptake at 0.5 h / tissue uptake at 1 h / tissue uptake at 4 h / tissue uptake at 48 h / tissue uptake at 72 h / tissue uptake at 24 h: Swiss albino, iv, 10 pmol peptide, total radioactivity, %ID/g tissue
Protocol: Samples of blood and tissues of interest were excised, weighted and counted for radioactivity in the gamma counter (automated well-type multi-sample gamma counter; NaI(Tl) 3'' crystal, Canberra Packard Auto-Gamma 5000 series instrument). Data was calculated as percent injected dose per gramtissue (%ID/g) with the aid of suitable standards of the injected dose. Statistical analysis using the unpaired two-tailed Student's t-test was performed to compare values between A431-CCK2R(+) and A431-CCK2R(-) tumours, as well as kidney, stomach and A431-CCK2R(+) tumour values between 4 h control and gelofusine-treated animal groups; values P < 0.05 were considered statistically significant (Table 2). The pharmacokinetic profile was determined by fitting an exponential curve through the organ time-activity data according to the least-squares method. The number of exponentials in the fitted curve was analysed according to the […] Information Criterion (AICc). All fitting was performed with Graphpad Prism version 5.

[2] = system: A431-CCK2R(±) xenografts; experiment: in vivo; design: species or system SCID mice; settings: SCID, mouse, iv, 10 pmol peptide, 4 h
Protocol: (§1) The human epidermoid A431 cell line transfected to stably express the CCK2R (A431-CCK2R(+)) or devoid of CCK2R expression (A431-CCK2R(−)) used for tumour induction in this work was a gift from Prof. O. Boerman (Department of Nuclear Medicine, Radboud University Nijmegen Medical Centre, Nijmegen, The Netherlands) and Prof. L. Aloj (Istituto di Biostrutture e Bioimmagini, Consiglio Nazionale delle Ricerche, Naples, Italy) and cells were cultured as previously reported ([Aloj et al., 2004]). Suspensions of freshly harvested A431-CCK2R(±) cells (~150 μL, 1.6 × 10^7/1.4 × 10^7) in normal saline were subcutaneously injected in the flanks of mice.
(§2) Animals were euthanized in groups of four at 1 h, 4 h and 24 h pi; in a separate 4-h group animals received gelofusine (100 μL) together with the radioligand. […] Mice were dissected and samples of blood and tissues of interest as well as tumours were excised, weighted and counted for radioactivity in the gamma counter. Data was calculated as percent injected dose per gram tissue (%ID/g) with the aid of suitable standards of the injected dose and represent mean ± SD. In all above experiments, analysis of the solution used in the biodistribution experiment was conducted prior to and after completion of all animal injections.
(§3) Statistical analysis using the unpaired two-tailed Student’s t-test was performed to compare values between A431-CCK2R(+) and A431-CCK2R(−) tumours, as well as kidney, stomach and A431-CCK2R(+) tumour values between 4 h control and gelofusine-treated animal groups; values P < 0.05 were considered statistically significant (Table 2). The pharmacokinetic profile was determined by fitting an exponential curve through the organ time-activity data according to the least-squares method. The number of exponentials in the fitted curve was analysed according to the Aikake Information Criterion (AICc). All fitting was performed with Graphpad Prism version 5.

[3] = in vivo; design: species or system SCID mice; settings: SCID, mouse, iv, 10 pmol peptide, total radioactivity, %ID/g tissue
Protocol: as §1, §2, §3

CSCC[C@H](NC(=O)[C@H](Cc1c[nH]c2ccccc12)NC(=O)CNC(=O)[C@H](Cc1ccc(O)cc1)NC(=O)[C@H](C)NC(=O)[C@@H](CCC(=O)O)NC(=O)[C@@H](CCC(=O)O)NC(=O)[C@@H](CCC(=O)O)NC(=O)[C@@H](CCC(=O)O)NC(=O)[C@@H](CCC(=O)O)NC(=O)[C@@H](CCC(=O)O)NC(=O)CN1CCN(CC(=O)O)CCN(CC(=O)O)CCN(CC(=O)O)CC1)C(=O)N[C@@H](CC(=O)O)C(=O)N[C@@H](Cc1ccccc1)C(N)=O [^111In-CP04, ^111In-DOTA-(DGlu)6-Ala-Tyr-Gly-Trp-Met-Asp-Phe-NH2, metal not drawn]
tissue uptake at 0.5 h ([1]; Blood): 1.74 ± 0.22 %ID/g
tissue uptake at 1 h ([1]; Blood): 0.51 ± 0.14 %ID/g
tissue uptake at 4 h ([1]; Blood): 0.02 ± 0.01 %ID/g
tissue uptake at 48 h ([1]; Blood): 0.01 ± 0.01 %ID/g
tissue uptake at 72 h ([1]; Blood): 0.01 ± 0.01 %ID/g
tissue uptake at 0.5 h ([1]; Femur): 4.62 ± 1.24 %ID/g
tissue uptake at 1 h ([1]; Femur): 2.62 ± 0.42 %ID/g
tissue uptake at 4 h ([1]; Femur): 0.96 ± 0.18 %ID/g
tissue uptake at 24 h ([1]; Femur): 0.53 ± 0.04 %ID/g
tissue uptake at 48 h ([1]; Femur): 0.55 ± 0.11 %ID/g
tissue uptake at 72 h ([1]; Femur): 0.49 ± 0.06 %ID/g
tissue uptake at 0.5 h ([1]; Heart): 0.7 ± 0.1 %ID/g
tissue uptake at 4 h ([1]; Heart): 0.03 ± 0.01 %ID/g
tissue uptake at 24 h ([1]; Heart): 0.02 ± 0.01 %ID/g
tissue uptake at 48 h ([1]; Heart): 0.02 ± 0.01 %ID/g
tissue uptake at 72 h ([1]; Heart): 0.03 ± 0.02 %ID/g
tissue uptake at 0.5 h ([1]; Intestines): 0.82 ± 0.14 %ID/g
tissue uptake at 1 h ([1]; Intestines): 0.39 ± 0.12 %ID/g
tissue uptake at 4 h ([1]; Intestines): 1.05 ± 0.35 %ID/g
tissue uptake at 48 h ([1]; Intestines): 0.08 ± 0.02 %ID/g
tissue uptake at 72 h ([1]; Intestines): 0.09 ± 0.04 %ID/g
tissue uptake at 0.5 h ([1]; Kidneys): 9.8 ± 2.07 %ID/g
tissue uptake at 1 h ([1]; Kidneys): 8.84 ± 2.05 %ID/g
tissue uptake at 4 h ([1]; Kidneys): 7.9 ± 1.98 %ID/g
tissue uptake at 24 h ([1]; Kidneys): 3.61 ± 0.31 %ID/g
tissue uptake at 48 h ([1]; Kidneys): 2.81 ± 0.63 %ID/g
tissue uptake at 72 h ([1]; Kidneys): 2.62 ± 0.24 %ID/g
tissue uptake at 0.5 h ([1]; Liver): 0.77 ± 0.11 %ID/g
tissue uptake at 1 h ([1]; Liver): 0.32 ± 0.15 %ID/g
tissue uptake at 24 h ([1]; Liver): 0.06 ± 0.01 %ID/g
tissue uptake at 48 h ([1]; Liver): 0.06 %ID/g
tissue uptake at 72 h ([1]; Liver): 0.05 ± 0.01 %ID/g
tissue uptake at 0.5 h ([1]; Lung): 1.05 ± 0.1 %ID/g
tissue uptake at 1 h ([1]; Lung): 0.4 ± 0.1 %ID/g
tissue uptake at 4 h ([1]; Lung): 0.06 ± 0.01 %ID/g
tissue uptake at 24 h ([1]; Lung): 0.03 ± 0.01 %ID/g
tissue uptake at 48 h ([1]; Lung): 0.02 ± 0.01 %ID/g
tissue uptake at 72 h ([1]; Lung): 0.03 ± 0.01 %ID/g
tissue uptake at 0.5 h ([1]; Muscle): 0.59 ± 0.1 %ID/g
tissue uptake at 4 h ([1]; Muscle): 0.04 ± 0.02 %ID/g
tissue uptake at 24 h ([1]; Muscle): 0.02 ± 0.01 %ID/g
tissue uptake at 48 h ([1]; Muscle): 0.03 ± 0.02 %ID/g
tissue uptake at 72 h ([1]; Muscle): 0.03 ± 0.02 %ID/g
tissue uptake at 0.5 h ([1]; Pancreas): 0.67 ± 0.08 %ID/g
tissue uptake at 4 h ([1]; Pancreas): 0.1 ± 0.01 %ID/g
tissue uptake at 24 h ([1]; Pancreas): 0.05 ± 0.01 %ID/g
tissue uptake at 48 h ([1]; Pancreas): 0.04 ± 0.01 %ID/g
tissue uptake at 72 h ([1]; Pancreas): 0.06 ± 0.03 %ID/g
tissue uptake at 0.5 h ([1]; Spleen): 0.36 ± 0.04 %ID/g
tissue uptake at 4 h ([1]; Spleen): 0.05 ± 0.01 %ID/g
tissue uptake at 24 h ([1]; Spleen): 0.04 ± 0.01 %ID/g
tissue uptake at 48 h ([1]; Spleen): 0.03 ± 0.01 %ID/g
tissue uptake at 72 h ([1]; Spleen): 0.04 ± 0.01 %ID/g
tissue uptake at 0.5 h ([1]; Stomach): 4.88 ± 0.85 %ID/g
tissue uptake at 1 h ([1]; Stomach): 2.99 ± 0.55 %ID/g
tissue uptake at 4 h ([1]; Stomach): 2.61 ± 0.82 %ID/g
tissue uptake at 24 h ([1]; Stomach): 1.48 ± 0.55 %ID/g
tissue uptake at 48 h ([1]; Stomach): 1.26 ± 0.26 %ID/g
tissue uptake at 72 h ([1]; Stomach): 0.92 ± 0.04 %ID/g
gastrointestinal tract clearance [1]: 2.5%
total body clearance T1/2, fast component (90%) [1]: 17 min
total body clearance, fraction of fast component [1]: 90%
total body clearance, fraction of slow component [1]: 10%
%ID/g tissue, Intestines [2]: 0.29 ± 0.18 %ID/g
%ID/g tissue, Kidneys [2]: 6.52 %ID/g
%ID/g tissue, Liver [2]: 0.12 ± 0.02 %ID/g
%ID/g tissue, Stomach [2]: 1.63 ± 0.20 %ID/g
%ID/g tissue, Tumour(+) (A431-CCK2R(+)) [2]: 8.49 %ID/g
tissue uptake at 1 h ([3]; Blood): 0.55 ± 0.17 %ID/g
tissue uptake at 4 h ([3]; Blood): 0.02 ± 0.01 %ID/g
tissue uptake at 1 h ([3]; Femur): 0.96 ± 0.46 %ID/g
tissue uptake at 4 h ([3]; Femur): 0.3 ± 0.22 %ID/g
tissue uptake at 24 h ([3]; Femur): 0.24 ± 0.09 %ID/g
tissue uptake at 1 h ([3]; Heart): 0.24 ± 0.08 %ID/g
tissue uptake at 4 h ([3]; Heart): 0.02 ± 0.01 %ID/g
tissue uptake at 24 h ([3]; Heart): 0.02 %ID/g
tissue uptake at 1 h ([3]; Intestines): 0.36 ± 0.13 %ID/g
tissue uptake at 4 h ([3]; Intestines): 0.22 ± 0.08 %ID/g
tissue uptake at 24 h ([3]; Intestines): 0.1 ± 0.04 %ID/g
tissue uptake at 1 h ([3]; Kidneys): 5.53 ± 0.78 %ID/g
tissue uptake at 4 h ([3]; Kidneys): 5.55 ± 0.94 %ID/g
tissue uptake at 24 h ([3]; Kidneys): 3.29 ± 0.56 %ID/g
tissue uptake at 1 h ([3]; Liver): 0.38 ± 0.12 %ID/g
tissue uptake at 24 h ([3]; Liver): 0.01 ± 0.01 %ID/g
tissue uptake at 1 h ([3]; Lung): 0.47 ± 0.13 %ID/g
tissue uptake at 4 h ([3]; Lung): 0.04 ± 0.01 %ID/g
tissue uptake at 24 h ([3]; Lung): 0.03 ± 0.01 %ID/g
tissue uptake at 4 h ([3]; Muscle): 0.03 ± 0.02 %ID/g
tissue uptake at 24 h ([3]; Muscle): 0.01 ± 0.01 %ID/g
tissue uptake at 1 h ([3]; Pancreas): 0.23 ± 0.08 %ID/g
tissue uptake at 4 h ([3]; Pancreas): 0.06 ± 0.01 %ID/g
tissue uptake at 24 h ([3]; Pancreas): 0.05 ± 0.01 %ID/g
tissue uptake at 4 h ([3]; Spleen): 0.04 ± 0.02 %ID/g
tissue uptake at 24 h ([3]; Spleen): 0.05 ± 0.01 %ID/g
tissue uptake at 1 h ([3]; Stomach): 2.6 ± 0.48 %ID/g
tissue uptake at 4 h ([3]; Stomach): 2.09 ± 0.32 %ID/g
tissue uptake at 24 h ([3]; Stomach): 1.58 ± 0.15 %ID/g
tissue uptake at 1 h ([3]; Tumour(+) (A431-CCK2R(+))): 12.6 ± 1.73 %ID/g
tissue uptake at 4 h ([3]; Tumour(+) (A431-CCK2R(+))): 9.24 ± 1.35 %ID/g
tissue uptake at 24 h ([3]; Tumour(+) (A431-CCK2R(+))): 4.98 ± 0.56 %ID/g
tissue uptake at 1 h ([3]; Tumour(–) (A431-CCK2R(–))): 1.07 ± 0.29 %ID/g
tissue uptake at 24 h ([3]; Tumour(–) (A431-CCK2R(–))): 0.1 ± 0.02 %ID/g
